Results as given in patent US9416127B2, “Triazole carboxamides and uses thereof” (Hoffmann-La Roche Inc., priority 2012, dated 2016).
Counter-ions that a name gives are not always drawn.

Assays:
[1] = target: mouse TAAR1 (Mus musculus (Mouse), UniProt Q923Y8); test: Radioligand binding assay on mouse TAAR1; settings: for Ki: mouse TAAR1, HEK-293 membranes, first value of mouse/rat cell
Procedure: (§1) Construction of TAAR Expression Plasmids and Stably Transfected Cell Lines
(§2) For the construction of expression plasmids the coding sequences of human, rat and mouse TAAR 1 were amplified from genomic DNA essentially as described by Lindemann et al.. The Expand High Fidelity PCR System (Roche Diagnostics) was used with 1.5 mM Mg^2+ and purified PCR products were cloned into pCR2.1-TOPO cloning vector (Invitrogen) following the instructions of the manufacturer. PCR products were subcloned into the pIRESneo2 vector (BD Clontech, Palo Alto, Calif.), and expression vectors were sequence verified before introduction in cell lines.
(§3) HEK293 cells (ATCC # CRL-1573) were cultured essentially as described by Lindemann et al. (2005). For the generation of stably transfected cell lines HEK293 cells were transfected with the pIRESneo2 expression plasmids containing the TAAR coding sequences (described above) with Lipofectamine 2000 (Invitrogen) according to the instructions of the manufacturer, and 24 hrs post transfection the culture medium was supplemented with 1 mg/ml G418 (Sigma, Buchs, Switzerland). After a culture period of about 10 d clones were isolated, expanded and tested for responsiveness to trace amines (all compounds purchased from Sigma) with the cAMP Biotrak Enzyme immunoassay (EIA) System (Amersham) following the non-acetylation EIA procedure provided by the manufacturer.
Radioligand Binding Assay on Mouse TAAR1
(§4) Membrane Preparation and Radioligand Binding.
(§5) HEK-293 cells stably expressing mouse TAAR1 were maintained at 37° C. and 5% CO2 in DMEM high glucose medium, containing fetal calf serum (10%, heat inactivated for 30 min at 56° C.), penicillin/streptomycin (1%), and 375 μg/ml geneticin (Gibco). Cells were released from culture flasks using trypsin/EDTA, harvested, washed twice with ice-cold PBS (without Ca^2+ and Mg^2+), pelleted at 1'000 rpm for 5 min at 4° C., frozen and stored at −80° C. Frozen pellets were suspended in 20 ml HEPES-NaOH (20 mM, pH 7.4) containing 10 mM EDTA and homogenized with a Polytron (PT 6000, Kinematica) at 14'000 rpm for 20 s. The homogenate was centrifuged at 48'000×g for 30 min at 4° C. Subsequently, the supernatant was removed and discarded, and the pellet resuspended in 20 ml HEPES-NaOH (20 mM, pH 7.4) containing 0.1 mM EDTA using the Polytron (20 s at 14'000 rpm). This procedure was repeated and the final pellet resuspended in HEPES-NaOH containing 0.1 mM EDTA and homogenized using the Polytron. Typically, aliquots of 2 ml membrane portions were stored at −80° C. With each new membrane batch the dissociation constant (Kd) was determined via a saturation curve. […] Nonspecific binding was defined as the amount of ^3[H]—(S)-4-[(ethyl-phenyl-amino)-methyl]-4,5-dihydro-oxazol-2-ylamine bound in the presence of 10 μM unlabeled ligand. All compounds were tested at a broad range of concentrations (10 pM to 10 μM) in duplicates. […] The 96 deep well plates were incubated for 1 hr at 4° C. Incubations were terminated by rapid filtration through Unifilter-96 plates (Packard Instrument Company) and glass filters GF/C (Perkin Elmer) presoaked for 1 hr in polyethylenimine (0.3%) and washed 3 times with 1 ml of cold binding buffer. After addition of 45 μl of Microscint 40 (PerkinElmer) the Unifilter-96 plate was sealed and after 1 hr the ratioactivity counted using a TopCount Microplate Scintillation Counter (Packard Instrument Company).

[2] = target: rat TAAR1 (Rattus norvegicus (Rat), UniProt Q923Y9); test: Radioligand binding assay on rat TAAR1; settings: for Ki: rat TAAR1, HEK-293 membranes, second value of mouse/rat cell
Procedure: as §1, §2, §3
Radioligand Binding Assay on Rat TAAR1
as §4
as §5, with “rat” for “mouse”, “[…]” for “pM”

mouse TAAR1, sequence (Q923Y8 whole entry): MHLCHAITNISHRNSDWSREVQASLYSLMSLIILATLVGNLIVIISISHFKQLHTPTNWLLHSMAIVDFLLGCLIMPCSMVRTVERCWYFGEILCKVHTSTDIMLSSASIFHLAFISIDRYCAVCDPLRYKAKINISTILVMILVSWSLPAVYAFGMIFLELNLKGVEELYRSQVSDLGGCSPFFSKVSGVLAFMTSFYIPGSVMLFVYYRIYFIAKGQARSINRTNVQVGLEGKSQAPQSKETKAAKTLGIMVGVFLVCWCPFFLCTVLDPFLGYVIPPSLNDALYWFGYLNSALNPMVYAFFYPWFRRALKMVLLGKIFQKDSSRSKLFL
rat TAAR1, sequence (Q923Y9 whole entry): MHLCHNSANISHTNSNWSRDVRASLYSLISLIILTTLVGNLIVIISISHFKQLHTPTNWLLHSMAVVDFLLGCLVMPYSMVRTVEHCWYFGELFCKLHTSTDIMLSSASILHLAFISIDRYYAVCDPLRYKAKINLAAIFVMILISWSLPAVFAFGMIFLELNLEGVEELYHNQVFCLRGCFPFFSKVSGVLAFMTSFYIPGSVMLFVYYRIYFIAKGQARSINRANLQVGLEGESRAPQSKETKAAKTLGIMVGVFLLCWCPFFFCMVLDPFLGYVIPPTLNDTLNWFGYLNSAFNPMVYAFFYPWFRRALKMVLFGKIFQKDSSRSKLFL

Compound | Ki [1] [µM] | Ki [2] [µM] | Kd ([1]; mouse TAAR1 membranes, saturation curve, read-out: dissociation constant (Kd) of radioligand) [nM] | Kd ([2]; rat TAAR1 membranes, saturation curve, read-out: dissociation constant (Kd) of radioligand) [nM]
Cc1cccc(-n2cc(C(=O)Nc3ccc([C@H]4CNCCO4)cc3)nn2)c1 [Example 24, (S)—N-(4-(Morpholin-2-yl)phenyl)-1-m-tolyl-1H-1,2,3-triazole-4-carboxamide hydrochloride] | 0.0013 | 0.0069 | – | –
COc1cccc(-n2cc(C(=O)Nc3ccc([C@H]4CNCCO4)cc3)nn2)c1 [Example 25, (S)-1-(3-Methoxyphenyl)-N-(4-(morpholin-2-yl)phenyl)-1H-1,2,3-triazole-4-carboxamide hydrochloride] | 0.0014 | 0.0092 | – | –
CCOc1cccc(-n2cc(C(=O)Nc3ccc([C@H]4CNCCO4)cc3)nn2)c1 [Example 26, (S)-1-(3-Ethoxyphenyl)-N-(4-(morpholin-2-yl)phenyl)-1H-1,2,3-triazole-4-carboxamide hydrochloride] | 0.0011 | 0.0032 | – | –
O=C(Nc1ccc([C@H]2CNCCO2)cc1)c1cn(-c2cccc(OC(F)(F)F)c2)nn1 [Example 27, (S)—N-(4-(Morpholin-2-yl)phenyl)-1-(3-(trifluoromethoxy)phenyl)-1H-1,2,3-triazole-4-carboxamide hydrochloride] | 0.0068 | 0.0154 | – | –
O=C(Nc1ccc([C@H]2CNCCO2)cc1)c1cnn(-c2cccc(OC(F)(F)F)c2)n1 [Example 28, (S)—N-(4-(Morpholin-2-yl)phenyl)-2-(3-(trifluoromethoxy)phenyl)-2H-1,2,3-triazole-4-carboxamide hydrochloride] | 0.0034 | 0.0156 | – | –
O=C(Nc1ccc([C@H]2CNCCO2)cc1)c1cn(-c2cccc(OC(F)F)c2)nn1 [Example 29, (S)-1-(3-(Difluoromethoxy)phenyl)-N-(4-(morpholin-2-yl)phenyl)-1H-1,2,3-triazole-4-carboxamide hydrochloride] | 0.0009 | 0.0006 | – | –
COc1cccc(-n2ncc(C(=O)Nc3ccc([C@H]4CNCCO4)cc3)n2)c1 [Example 30, (S)-2-(3-Methoxyphenyl)-N-(4-(morpholin-2-yl)phenyl)-2H-1,2,3-triazole-4-carboxamide hydrochloride] | 0.0032 | 0.0082 | – | –
CCOc1cccc(-n2ncc(C(=O)Nc3ccc([C@H]4CNCCO4)cc3)n2)c1 [Example 31, hydrochloride] | 0.013 | 0.107 | – | –
O=C(Nc1ccc([C@H]2CNCCO2)cc1)c1ncn(-c2ccc(OC(F)F)cc2)n1 [Example 32, (S)-1-(4-(Difluoromethoxy)phenyl)-N-(4-(morpholin-2-yl)phenyl)-1H-1,2,4-triazole-3-carboxamide hydrochloride] | 0.0018 | 0.045 | – | –
O=C(Nc1ccc([C@H]2CNCCO2)cc1)c1cn(-c2ccc(Br)cn2)nn1 [Example 36, (S)-1-(5-Bromopyridin-2-yl)-N-(4-(morpholin-2-yl)phenyl)-1H-1,2,3-triazole-4-carboxamide hydrochloride] | 0.0046 | 0.03 | – | –
CCN(C[C@H]1COC(N)=N1)c1ccccc1 [^3[H]—(S)-4-[(ethyl-phenyl-amino)-methyl]-4,5-dihydro-oxazol-2-ylamine, reference compound] | – | – | ~0.7 | ~2.3
